Data set [1] has as its system human neural progenitor cell line (RenVM). Kind of data set: neuronal differentiation of Ren cells (β3-tubulin positive fraction). The class given is cell-based. Particulars: 1 μM d-bdnf, four days; BDNF 50 ng/mL comparator. How it is done:
Figure 3 Neurite outgrowth stimulated by BDNF and its mimetic peptide ligands. (A) Top, left: schematic timeline of the experiment. SH-SY5Y cells were differentiated for 5 days (d1–5) by addition of retinoic acid (RA, gray bar) in the cell medium. Then, cells were stimulated for 3 days (d6–8) with 150 ng/mL BDNF or different concentrations of its peptide-mimetics (black bar) or left untreated (white bar). On the right and bottom, representative images of the differentiated cells at the end of each treatment. Scale bar 50 μm. (B) Scatter dot plot of the total neurite length, normalized to the number of cell bodies present in each analyzed field. […] For each field, an average of 50–200 cells were counted. […] (C) Representative fluorescence images of DIV3 Ren cells stained with DAPI (blue) and β3-tubulin (green) after differentiation with the standard medium (CTRL), or with the standard medium supplemented with 50 ng/mL BDNF or with 1 μM d-bdnf. […] (D) Column plot of the mean ± SD fraction of β3-tubulin (green) positive on the total cells, counted in the DAPI channel of the analyzed fields (nfields) (CTRL: nfields = 10 and total ncells = 4756; BDNF: nfields = 11 and total ncells = 4330; d-bdnf: nfields = 10 and total ncells = 5619 cells; ****p < 0.0001, *p < 0.05 according to the one-way ANOVA with Dunnett’s multiple comparison test). […]

A short description of data set [2]: potentiometric titration, protonation constants. In kind it is physicochemical. Particulars: 298 K. How it is done: (§1) Potentiometric measurements were carried out to give insight into the coordination environment of Zn^2+ bound to the d-bdnf peptide (Figure S5). […] The four protonation equilibria of the aspartic and glutamic residues partly overlap but, in agreement with the literature data, the aspartic β-carboxylic group is more acidic than glutamic γ-carboxylic one.[48] The potentiometric titrations were carried out exploring 0.9:1 and 2.2:1 metal to ligand molar ratio. […] The peptide forms two complex species, [ZnLH] and [ZnL]. The first one is the predominant at pH = 6, and the calculated stability constant value [logK(111) = logβ(111) – logK(011) = 5.71] indicates the involvement of three nitrogen atoms in the metal coordination environment. The [ZnL] species display a stability constant value, logβ = 7.15, higher than that of protonated species indicative of the involvement of a further nitrogen atom in the metal binding mode. In this complex species, Zn^2+ is bound to four nitrogen atoms with the involvement of two amino and two imidazole (2NH2,2NIm coordination mode). […]
(§2) Potentiometric measurements
Potentiometric titrations were carried out on a Titrando 905 automatic, using a combined glass-Ag/AgCl electrode (Metrohm, Switzerland). Solutions (2.0 mL) were thermostated at 298 K and in argon atmosphere. The ionic strength was 0.1 M in KNO3. A 0.1 M solution of KOH was used to titrate solutions containing either the peptides only (protonation constants) or the peptides with Zn2+ (complexation constants). The peptide concentrations range used was 1-2 mM in both series of experiments. At least three independent titrations were performed. Starting pH value was adjusted to 2.4 by adding HNO3 0.2 M. The titrations were carried out up to pH 8.5. Metal ion/ligand ratios between 0.9:1 and 2.2:1 were employed. To avoid systematic errors and verify reproducibility, the EMF values of each experiment were recorded at different time intervals. The data were analyzed by […]
using HYPERQUAD 2003 program 17. […]

Data set [3] is described as follows: potentiometric titration, Zn^2+ complex stability constants. In kind it is binding. The note with it: 298 K, 0.1 M KNO3, metal/ligand 0.9:1 to 2.2:1. The method, then:
as §1, §2
Potentiometric titrations were carried out on a Titrando 905 automatic, using a combined glass-Ag/AgCl electrode (Metrohm, Switzerland). […] To avoid systematic errors and verify reproducibility, the EMF values of each experiment were recorded at different time intervals. The data were analyzed by […]

The mark [4] stands for this setting: species LH 12 (NH2), 0.1 M KNO3.
Setting [5] is: species LH 13 (His), 0.1 M KNO3.
Setting [6] is: species LH 14 (His), 0.1 M KNO3.
Where [7] appears, read: species LH 15 (COO), 0.1 M KNO3.
Where [8] appears, read: species LH 16 (COO), 0.1 M KNO3.
Setting [9] is: species LH 17 (COO), 0.1 M KNO3.
Where [10] appears, read: species LH 18 (COO), 0.1 M KNO3.

For the substance “HSDPARRGELSVC-C-VSLEGRRAPDSH (disulfide) [d-bdnf]”, the “neuronal cell fraction (β3-tubulin positive)” value in data set [1] is on record as “significant increase of detected neurons with respect to untreated cells, in a similar way to BDNF”. For the same substance, the “logk (stepwise protonation, pK)” value in data set [2] (species LH 11 (NH2), 0.1 M KNO3) amounted to 7.59; in data set [2] (setting [4]) it was 7.16; in data set [2] (setting [5]) it was 5.96; in data set [2] (setting [6]), 5.32; in data set [2] (setting [7]), 4.66; in data set [2] (setting [8]), 4.20. Further, the “logk (stepwise protonation, pK)” value in data set [2] (setting [9]) was 3.55; in data set [2] (setting [10]) it was 3.31. Also, the “log (protonation constant)” value is 7.59 in data set [2] (species LH 11 (NH2), 0.1 M KNO3, at least three titrations); 14.75 in data set [2] (setting [4]); 20.71 in data set [2] (setting [5]); 26.03 in data set [2] (setting [6]); 30.69 in data set [2] (setting [7]); 34.90 in data set [2] (setting [8]). Moreover, the “log (protonation constant)” value in data set [2] (setting [9]) was found to be 38.44; in data set [2] (setting [10]), 41.75. For the same substance, the “log (Zn2+ complex stability constant)” value is listed as 7.15 (3) in data set [3] (species ZnLH 110, [ZnL] (2 His, 2 NH2)) and 13.30 (2) in data set [3] (species ZnLH 111 (2 His, NH2)).
